Results: patent US20200270309A1, “MALEIMIDE GROUP-MODIFIED ANGIOGENESIS INHIBITOR HM-1 AND USE THEREOF” (NANJING ANJI BIOLOGICAL TECHNOLOGY CO., LTD, priority 2017, published 2020)
Marks after values point to notes of the source that are not given here. Peptide text beside a SMILES is read from it. * marks the point of attachment. X68 = O=C1C=CC(=O)N1c1ccccc1CCCCCCCCCCCC(=O)*; X59 = O=C1C=CC(=O)N1c1cccc(CCCCCCCCC(=O)*)c1; X60 = O=C1C=CC(=O)N1c1ccccc1CCCCCCCCCC(=O)*; X55 = O=C1C=CC(=O)N1c1ccccc1CCCCCCCCC(=O)*; X52 = O=C1C=CC(=O)N1c1ccccc1CCCCCCCC(=O)*

Legend:
[1] = system: xylene-induced ear swelling; assay: Xylene-induced mouse ear swelling; type: in vivo; conditions: Kunming mice, injected once a day for 5 days; for Swelling degree (mg) / Swelling degree: right minus left ear piece weight 2 h after xylene; for Inhibition rate (%): xylene-induced ear swelling
Procedure, shortened: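 Ear pieces punched and weighed 2 h after xylene (0.05 mL, right ear only; left ear as normal) gave swelling degree (right − left weight) and swelling rate (degree/left weight ×100%). Kunming mice received injections daily for 5 consecutive days, xylene applied 1 h after final dose.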

[2] = system: IL-1β production by mouse peritoneal macrophages; assay: IL-1β production by mouse peritoneal macrophages (ELISA); type: cell-based; conditions: for Inhibition rate: IL-1β production, vs model group; for IL-1β: mouse peritoneal macrophages, 48 h, ELISA
Procedure, shortened: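 Peptides tested at three concentration levels on adherent peritoneal macrophages harvested from mice 3 days after i.p. 6% starch broth, plated at 2×10^6 cells/mL. After 48 h culture with Dex as reference, IL-1β in supernatants was quantified.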

[3] = system: corneal neovascularization; assay: Corneal neovascularization induced by alkali burn in BALB/c mice; type: in vivo; parameters: Inhibition rate (corneal neovascularization): concentration or dose not given beside the values; conditions: day 14 after alkali burn, vitreous injection once a day for 1 week
[4] = system: retinal neovascularization (OIR model); assay: Retinal vessels in OIR mice; type: in vivo, C57/B16 mice; conditions: for Area of neovascular plexus (mm^2): dose 0.05 μM in the vitreous chamber on day 13, retinal vessels evaluated on day 17; for Inhibition rate (%): dose 0.05 μM in the vitreous chamber on day 13, retinal vessels evaluated on day 17, vs negative control
Procedure, shortened: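 C57/B16 pups were held in 75% oxygen from postnatal day 7 to 12, then returned to room air. On day 13 they received intravitreal saline or compound. On day 17 perfused vessels were labelled by Texas red tomato agglutinin injected into the left ventricle (5 min circulation) and retinal vasculature assessed.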

[5] = system: retinal vascular endothelial nuclei; assay: Neovascularization in a rat model of premature retinopathy; type: in vivo, rats; conditions: dose 0.05 μM in the vitreous chamber from day 7 of modeling for one week; counted on day 14; oxygen-induced neonatal rats
Procedure, shortened: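 Newborn rats kept 7 d in chamber alternating 80% and 10% O2 every 24 h (23 °C), then room air. Intravitreal injection of test agents on day 7, saline for model and control; eyes taken day 14, HE-stained 4 μm sections. Endothelial nuclei breaching retinal inner limiting membrane counted, averaged per section per eye (10 sections).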

HUVECs = assay: Transwell migration inhibition on HUVECs; type: cell-based, human; conditions: for Inhibition rate (%): HUVEC migration vs blank control; for Cell migration number (Mean ± SD): HUVECs, transwell, 24 h
[6] = system: collagen-induced arthritis; assay: Mouse collagen-induced arthritis (CIA) animal model; type: in vivo; conditions: DBA/1 mice CIA model, dose 4.0 mg/kg, subcutaneous from day 30, n=10; for Clinical score: highest score 16

Compound	Inhibition rate (%) ([1]; dose 2 mg/kg)	Swelling degree (mg) ([1]; dose 4 mg/kg)	Inhibition rate (%) ([1]; dose 4 mg/kg)	Swelling degree (mg) ([1]; dose 8 mg/kg)	Inhibition rate (%) ([1]; dose 8 mg/kg)	Inhibition rate ([2]; dose 0.05 μM)	IL-1β ([2]; dose 0.05 μM)	Inhibition rate ([2]; dose 0.1 μM)	IL-1β ([2]; dose 0.1 μM)	Inhibition rate ([2]; dose 0.2 μM)	IL-1β ([2]; dose 0.2 μM)	Inhibition rate (corneal neovascularization) [3]	MVD (corneal microvessel density) [3]	Area of neovascular plexus (mm^2) [4]	Inhibition rate (%) [4]	Nuclei count (retinal vascular endothelial nuclei, average per section per eyeball) [5]	Inhibition rate (%) (HUVECs; dose 0.05 μM)	Inhibition rate (%) (HUVECs; dose 0.1 μM)	Inhibition rate (%) (HUVECs; dose 0.2 μM)	Joint swelling degree (mm) [6]	also measured
C[C@H](NC(=O)CNC(=O)[C@H](CCCNC(=N)N)NC(=O)CCCCCCCc1ccccc1N1C(=O)C=CC1=O)C(=O)N[C@@H](CC(=O)O)C(=O)N[C@@H](CCCNC(=N)N)C(=O)N[C@@H](C)C(=O)NCC(=O)NCC(=O)NCC(=O)NCC(=O)N[C@@H](CCCNC(=N)N)C(=O)NCC(=O)N[C@@H](CC(=O)O)C(=O)O [X19] (X52-RGADRAGGGGRGD-OH)	20.06%	3.97 ± 0.61** mg	36.28%	3.8 ± 0.03** mg	39.00%	37.19%	591.13 ± 10.54 pg/mL	37.27%	590.42 ± 10.34 pg/mL	37.39%	589.21 ± 12.08 pg/mL	41.43%	39.38 ± 4.833	0.083 ± 0.019 mm^2	60.85%**	7.236 ± 1.218	40.99%	46.77%	54.44%	0.84 ± 0.18 mm	Swelling degree (mg) ([1]; dose 2 mg/kg): 4.98 ± 0.72* mg; Left and right paw swelling degree (mm) [6]: 0.82 ± 0.14 mm; Clinical score [6]: 8.72 ± 1.41
C[C@H](NC(=O)CNC(=O)[C@H](CCCNC(=N)N)NC(=O)CCCCCCCCc1cccc(N2C(=O)C=CC2=O)c1)C(=O)N[C@@H](CC(=O)O)C(=O)N[C@@H](CCCNC(=N)N)C(=O)N[C@@H](C)C(=O)NCC(=O)NCC(=O)NCC(=O)NCC(=O)N[C@@H](CCCNC(=N)N)C(=O)NCC(=O)N[C@@H](CC(=O)O)C(=O)O [X32] (X59-RGADRAGGGGRGD-OH)	17.01%	4.83 ± 0.02* mg	22.47%	3.69 ± 0.56** mg	40.77%	18.02%	771.56 ± 13.41 pg/mL	28.17%	676.06 ± 19.82 pg/mL	43.31%	533.56 ± 18.54 pg/mL	50.25%	33.45 ± 6.453	0.096 ± 0.001 mm^2	54.72%**	8.394 ± 2.665	41.92%	47.67%	56.61%	0.81 ± 0.16 mm	Swelling degree ([1]; dose 2 mg/kg): 5.17 ± 0.06 mg; Cell migration number (Mean ± SD) (HUVECs; dose 0.05 μM): 622.57 ± 49.41; Cell migration number (Mean ± SD) (HUVECs; dose 0.1 μM): 560.86 ± 50.91; Cell migration number (Mean ± SD) (HUVECs; dose 0.2 μM): 465.06 ± 48.23; Left and right paw swelling degree (mm) [6]: 0.81 ± 0.13 mm; Clinical score [6]: 9.06 ± 1.26
C[C@H](NC(=O)CNC(=O)[C@H](CCCNC(=N)N)NC(=O)CCCCCCCCc1ccccc1N1C(=O)C=CC1=O)C(=O)N[C@@H](CC(=O)O)C(=O)N[C@@H](CCCNC(=N)N)C(=O)N[C@@H](C)C(=O)NCC(=O)NCC(=O)NCC(=O)NCC(=O)N[C@@H](CCCNC(=N)N)C(=O)NCC(=O)N[C@@H](CC(=O)O)C(=O)O [X20] (X55-RGADRAGGGGRGD-OH)	8.19%	3.78 ± 0.88** mg	39.33%	3.47 ± 0.07** mg	44.30%	17.90%	772.72 ± 18.78 pg/mL	23.02%	724.50 ± 12.58 pg/mL	32.89%	631.59 ± 19.52 pg/mL	44.62%	37.24 ± 6.113	0.118 ± 0.014 mm^2	44.34%*	9.374 ± 3.742	47.45%	49.79%	52.70%	0.82 ± 0.17 mm	Swelling degree ([1]; dose 2 mg/kg): 5.72 ± 0.01 mg; Cell migration number (Mean ± SD) (HUVECs; dose 0.05 μM): 563.29 ± 41.22; Cell migration number (Mean ± SD) (HUVECs; dose 0.1 μM): 538.18 ± 64.13; Cell migration number (Mean ± SD) (HUVECs; dose 0.2 μM): 506.96 ± 57.65; Left and right paw swelling degree (mm) [6]: 0.74 ± 0.14 mm; Clinical score [6]: 9.07 ± 1.33
C[C@H](NC(=O)CNC(=O)[C@H](CCCNC(=N)N)NC(=O)CCCCCCCCCCCc1ccccc1N1C(=O)C=CC1=O)C(=O)N[C@@H](CC(=O)O)C(=O)N[C@@H](CCCNC(=N)N)C(=O)N[C@@H](C)C(=O)NCC(=O)NCC(=O)NCC(=O)NCC(=O)N[C@@H](CCCNC(=N)N)C(=O)NCC(=O)N[C@@H](CC(=O)O)C(=O)O [X23] (X68-RGADRAGGGGRGD-OH)	9.47%	3.63 ± 0.51** mg	41.73%	3.47 ± 0.06** mg	44.30%	15.69%	793.48 ± 19.42 pg/mL	30.92%	650.17 ± 14.98 pg/mL	33.74%	623.64 ± 12.33 pg/mL	46.95%	35.67 ± 6.861	0.101 ± 0.002 mm^2	52.36%**	8.275 ± 1.713	48.22%	51.50%	52.06%	0.77 ± 0.17 mm	Swelling degree ([1]; dose 2 mg/kg): 5.64 ± 0.84 mg; Left and right paw swelling degree (mm) [6]: 0.77 ± 0.15 mm; Clinical score [6]: 9.15 ± 1.47
C[C@H](NC(=O)CNC(=O)[C@H](CCCNC(=N)N)NC(=O)CCCCCCCCCc1ccccc1N1C(=O)C=CC1=O)C(=O)N[C@@H](CC(=O)O)C(=O)N[C@@H](CCCNC(=N)N)C(=O)N[C@@H](C)C(=O)NCC(=O)NCC(=O)NCC(=O)NCC(=O)N[C@@H](CCCNC(=N)N)C(=O)NCC(=O)N[C@@H](CC(=O)O)C(=O)O [X21] (X60-RGADRAGGGGRGD-OH)	13.48%	4.97 ± 0.14* mg	20.22%	3.15 ± 0.42** mg	49.44%	17.80%	773.58 ± 10.52 pg/mL	32.29%	637.22 ± 12.95 pg/mL	44.01%	526.94 ± 17.75 pg/mL	45.93%	36.36 ± 3.663	0.118 ± 0.012 mm^2	44.34%*	7.222 ± 3.567	48.94%	50.61%	52.23%	0.81 ± 0.14 mm	Swelling degree ([1]; dose 2 mg/kg): 5.39 ± 0.39 mg; Left and right paw swelling degree (mm) [6]: 0.83 ± 0.16 mm; Clinical score [6]: 8.79 ± 1.43
